Measured values as given in patent US10730839B2, “Quinolines as cytoprotective agents” (priority 2016, dated 2020).

Tests used:
SH-SY5Y cells = assay: Cell rescue assay: protection against ß-amyloid-induced cell toxicity; assay type: cell-based; conditions: Homo sapiens, 96 h, 7.5 uM compound, AB 1-42 at 10 uM, 4 days, OD at 490 nm, read-out: Cell Survival % (cell rescue)
Method: Protection against ß-amyloid-induced cell toxicity. Chonpathompikunlert et al. Eu. J. Pharmacol. 2011, 650, 544-549. Human SH-SY5Y cells are suspended in media containing 2% FBS and 2× Gentamicin. Transfer 100 ul/well culture to 96-well plate (20,000 cells/well; passage #5) and incubate overnight. Prepare compound samples at 30 uM. Add 50 ul of the samples to the cells [[…]] and incubate 3 hours. Make stock of 40 uM AB 1-42 peptide in assay media. Transfer 50 ul/well to cells/compounds in assay plate. The final assay volume is 200 ul/well, containing 2% FBS, 2× Gentamicin, 7.5 uM compound and AB 1-42 at 10 uM. Incubate for 4 days then add 20 ul of Promega Substrate Cell Titer 96 Aqueous One Solution Reagent to each well. Incubate 37 OC and read OD at 490 nm. The results are summarized in Table 3, where A represents a value equal to or greater than 50% cell rescue, B represents a value greater than 10% and less than 50% cell rescue, and C represents a value greater than 1% and less than or equal to 10% cell rescue.

HEK293 cells; N2a cells = assay: Cell rescue assay: protection against thapsigargin (TG)-induced cell-death (ALAMARBLUE); assay type: cell-based, Human; Mouse; conditions: Homo sapiens; compound 20 μM, 2 hrs before thapsigargin (15 μM HEK293, 1 μM N2a), 24 hrs; viability as % RFU compared to control; read-out: Cell Survival %
Method: Protection against Thapsigargin (TG)-induced Cell-death. Human embryonic kidney (HEK293) cells were grown in Dulbecco's Modified Eagle's Medium (DMEM) with 10% FBS and 1% antibiotic antimycotic solution (ABAM). Mouse neuroblastoma (N2a) cells were grown in 1:1 DMEM:OPTI-MEM® with 5% FBS and 1% ABAM. All cells were grown in 10% CO2 in a humidified environment of the incubator. Cells grown in 96-well plates were exposed to a test compound (20 μM) for 2 hrs before addition of thapsigargin (15 μM for HEK293 cells and 1 μM for N2a cells) to induce ER stress. After incubation in cell-culture incubator for 24 hrs, ALAMARBLUE® regent (10% v/v) was added to the wells. Fluorescence reading was taken 2 hrs after the addition of the ALAMARBLUE® regent. Cell-viability was calculated as a percentage of relative fluorescence unit (RFU) compared to control. […] The biological results are summarized in Table 2, where each compound was tested at 20 μM and where A represents a viability greater than 50%, B represents a viability greater than 10% and less than 50%, C represents a value at or below 10%.

Ob/ob mice = assay: Effect of a SERCA agonist on the level of blood glucose; assay type: in vivo; conditions: Mus musculus, ip, 96 h, 50 mg/kg i.p. once a day for 5 days, fasting glucose at baseline and 4 days after administration, read-out: Glucose level reduction
Method: Ob/ob mice (10 weeks old, n=7) were intraperitoneally (i.p.) injected with 100 μL of a solution containing 0 (vehicle) or 50 mg/kg of a test compound once a day for a total of 5 days. Fasting glucose was measured at baseline and 4 days after the administration of the test compound. Glucose levels were measured in blood samples drawn from the tail vein using a handheld glucose sensor. Compound effects on blood glucose are shown in Table 5 where A represents a 10-20% reduction in blood glucose, B represents a 21-30% reduction in blood glucose, and C represents a greater than 30% reduction in blood glucose levels.

CSM14.1 neuronal cells = assay: Cell survival assay (thapsigargin-treated cells, CELLTITER-GLO luminescence); assay type: cell-based; conditions: compound 2 hrs before about 15 μM thapsigargin, overnight
Method: CSM14.1 neuronal cells were maintained in Complete Medium at 32° C.; wherein the Complete Medium contained Dulbecco's modified eagle medium (DMEM) with 10% fetal bovine serum (FSB), 1% L-glutamine, 100 IU/mL penicillin, and 100 μg/mL streptomycin. The cells were recovered from cultures by trypsinization and then seeded in 384 well plates (Greiner #781098) at a concentration of 1,000 cells/well in 20 μL of DMEM Assay Medium, wherein the DMEM Assay Medium contained 2% FBS, 100 IU/mL penicillin, and 100 μg/mL streptomycin. Seeding was performed using a MultiDrop Combi reagent broadcaster. The plates were incubated overnight at 32° C. A test compound was prepared by 2-fold serial dilution in 100% DMSO using a BIOMEK® 2000 liquid handler (Beckman Coulter). A dose-response curve containing 10 concentrations of the test compound was obtained. Using a BIOMEK® FX liquid handler (Beckman Coulter), 2.5 μL of the test compound was transferred from the 100% DMSO serial dilution plate to an intermediate plate containing 47.5 μL of DMEM Assay Medium containing 2% FBS, 100 IU/mL penicillin, and 100 μg/mL streptomycin and mixed. To reduce or eliminate the interference from the compound's precipitation, 6 μL of the diluted compound was immediately transferred to the assay plate to achieve a high compound concentration of 100 μM in 99% DMEM Assay Medium and 1% DMSO. After the assay plates were incubated for 2 hrs, 4 μL of 112.5 μM thapsigargin (TG) (DMSO stock diluted into Assay TC Medium) was dispensed into each testing well with a MultiDrop Combi reagent broadcaster for a final concentration of about 15 μM TG. The tissue culture media (4 μL) containing vehicle only was transferred manually to each control cell using a 16 channel electronic pipette. After the plates were incubated overnight (about 16 to 24 hrs), CELLTITER-GLO® (Promega) (16 μL) was added to all wells and luminescence was measured. High luminescence indicates cell survival. The biological results are summarized in Table 1 where A represents a cell viability EC50 less than 1 μM and B represents a value greater than 1 μM and less than 10 μM and C represents a value equal to or greater than 10 μM and less than 20 μM.

SERCA = biological target: T1, SERCA (Homo sapiens, UniProt P16615); assay: Ca-ATPase assay (NADH-linked, enzyme-coupled ATPase assay); assay type: biochemical; conditions: microsomal preparations from HEK 293 cells, Vmax from Hill fit of ATPase calcium-dependence, relative to controls
T1 construct: microsomal preparations from HEK 293 cells; endogenous in cells; host or cells: HEK 293 cells (microsomal preparation)
T1 sequence (P16615 whole entry): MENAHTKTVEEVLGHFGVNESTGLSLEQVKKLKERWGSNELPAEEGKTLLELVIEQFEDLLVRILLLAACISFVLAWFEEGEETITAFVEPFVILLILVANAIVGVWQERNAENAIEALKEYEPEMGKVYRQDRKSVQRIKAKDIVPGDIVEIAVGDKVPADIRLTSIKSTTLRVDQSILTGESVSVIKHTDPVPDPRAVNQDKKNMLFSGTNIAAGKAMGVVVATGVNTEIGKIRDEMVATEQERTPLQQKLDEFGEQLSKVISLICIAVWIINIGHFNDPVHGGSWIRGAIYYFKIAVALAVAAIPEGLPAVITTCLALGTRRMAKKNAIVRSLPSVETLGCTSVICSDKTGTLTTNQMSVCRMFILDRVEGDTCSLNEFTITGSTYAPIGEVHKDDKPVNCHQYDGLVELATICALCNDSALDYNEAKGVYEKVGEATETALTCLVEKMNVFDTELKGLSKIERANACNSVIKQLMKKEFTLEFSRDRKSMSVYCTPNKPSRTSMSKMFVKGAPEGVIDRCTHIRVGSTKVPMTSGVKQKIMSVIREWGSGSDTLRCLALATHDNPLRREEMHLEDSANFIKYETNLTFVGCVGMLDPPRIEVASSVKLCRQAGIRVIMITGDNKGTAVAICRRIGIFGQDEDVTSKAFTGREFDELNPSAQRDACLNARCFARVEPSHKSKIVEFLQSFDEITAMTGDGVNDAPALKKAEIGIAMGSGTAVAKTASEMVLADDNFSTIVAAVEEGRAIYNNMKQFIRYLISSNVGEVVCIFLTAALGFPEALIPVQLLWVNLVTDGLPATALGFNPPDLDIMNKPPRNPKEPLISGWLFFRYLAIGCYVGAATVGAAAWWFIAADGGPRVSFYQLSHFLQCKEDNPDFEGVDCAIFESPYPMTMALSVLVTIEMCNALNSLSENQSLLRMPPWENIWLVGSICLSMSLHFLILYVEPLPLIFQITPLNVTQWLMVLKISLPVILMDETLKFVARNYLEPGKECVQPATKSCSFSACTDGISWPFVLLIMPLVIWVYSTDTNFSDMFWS
Method: A Ca-ATPase assay was performed using microsomal preparations from HEK 293 cells at a series of calcium concentrations corresponding to the physiological range, relative to controls. The ATP hydrolysis rate was measured over a range of calcium concentrations in the presence of test compounds using an NADH-linked, enzyme-coupled ATPase assay adapted for 96-well microplates, with Vmax determined by fitting the ATPase calcium-dependence to the Hill function. Each well contained 2 μg or 7 μg of SR vesicles (optimized for skeletal or cardiac SR, respectively), 50 mM MOPS (pH 7.0), 100 mM KCl, 5 mM MgCl2, 1 mM EGTA, 0.2 mM NADH, 1 mM phosphoenol pyruvate, 5 IU pyruvate kinase, 5 IU lactate dehydrogenase, and 3.5 μg/mL A23187 (a calcium ionophore). CaCl2 was added to set free [Ca^2+] to the specific values. The assay was started upon addition of ATP at a final concentration of 5 mM, and read in a SpectraMax Plus microplate spectrophotometer. The results are summarized in Table 4, where A represents an increase in SERCA Vmax greater than or equal to 50% and B represents a value greater than 10% and less than 50%.

| SMILES | viability at 7.5 µM (SH-SY5Y cells) [%] | viability at 20 µM (HEK293 cells; N2a cells) [%] | inhibition in vivo at 50 mg/kg (Ob/ob mice) [%] | EC50 (CSM14.1 neuronal cells) [µM] | SERCA Vmax Increase (SERCA) |
| --- | --- | --- | --- | --- | --- |
| Cc1ccc2cccc(C(=O)Nc3ccc(OC(C)C)cc3)c2n1 [A1, N-(4-Isopropoxyphenyl)-2-methylquinoline-8-carboxamide] | 10 to 50 | > 50 | > 30 | 1 to 10 | A (an increase in SERCA Vmax greater than or equal to 50%) |
| Cc1ccc2cccc(C(=O)Nc3ccc(Cl)cc3)c2n1 [A2, N-(4-Chlorophenyl)-2-methylquinoline-8-carboxamide] | ≥ 50 | > 50 | > 30 | 1 to 10 | B (a value greater than 10% and less than 50%) |
| Cc1ccc2cccc(C(=O)Nc3cccc(F)c3)c2n1 [A3, N-(3-Fluorophenyl)-2-methylquinoline-8-carboxamide] | 10 to 50 | 10 to 50 | 10 to 20 | 10 to 20 | B (a value greater than 10% and less than 50%) |
| Cc1ccc2cccc(C(=O)Nc3ccc(N(C)C)cc3)c2n1 [A4, N-(4-(Dimethylamino)phenyl)-2-methylquinoline-8-carboxamide] | 10 to 50 | 10 to 50 | 21 to 30 | < 1 | A (an increase in SERCA Vmax greater than or equal to 50%) |
| Cc1ccc(NC(=O)c2cccc3ccc(C)nc23)cc1 [A5, N-(4-Methylphenyl)-2-methylquinoline-8-carboxamide] | ≥ 50 | > 50 | 21 to 30 | 1 to 10 | B (a value greater than 10% and less than 50%) |
| Cc1ccc2cccc(C(=O)Nc3cc(Br)cs3)c2n1 [B1, N-(4-Bromothiophen-2-yl)-2-methylquinoline-8-carboxamide] | 10 to 50 | > 50 | > 30 | 1 to 10 | A (an increase in SERCA Vmax greater than or equal to 50%) |
| Cc1ccc2cccc(C(=O)Nc3ccc(Br)s3)c2n1 [B2, N-(5-Bromothiophen-2-yl)-2-methylquinoline-8-carboxamide] | 10 to 50 | > 50 | 21 to 30 | 1 to 10 | A (an increase in SERCA Vmax greater than or equal to 50%) |
| Cc1ccc2cccc(C(=O)Nc3ccc(C)s3)c2n1 [B3, 2-Methyl-N-(5-methylthiophen-2-yl)quinoline-8-carboxamide] | 1 to 10 | ≤ 10 | 10 to 20 | 1 to 10 | B (a value greater than 10% and less than 50%) |
| Cc1ccc2cccc(C(=O)Nc3cccs3)c2n1 [B4, 2-Methyl-N-(thiophen-2-yl)quinoline-8-carboxamide] | ≥ 50 | > 50 | > 30 | 1 to 10 | B (a value greater than 10% and less than 50%) |
| Cc1ccc2cccc(C(=O)Nc3ccc(C4CC4)s3)c2n1 [B5, N-(5-Cyclopropylthiophen-2-yl)-2-methylquinoline-8-carboxamide] | 1 to 10 | ≤ 10 | 10 to 20 | 1 to 10 | A (an increase in SERCA Vmax greater than or equal to 50%) |
